According to PubChem BioAssay (NCI):
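Where inhibition never reached the appropriate level, the endpoint shown equals the highest concentration tested. Otherwise, values were interpolated linearly from a five-concentration, 48-hour dose response in 96-well plates. GI50 = concentration required for 50% inhibition of growth. Definition used: TGI = concentration required for complete inhibition of growth.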

Legend:
Test in all cases: NCI-60 cell line screen, 48 h
KM12 colon = system: KM12 colon
UO-31 renal = system: UO-31 renal
SR leukemia = system: SR leukemia
SK-MEL-2 melanoma = system: SK-MEL-2 melanoma
MDA-MB-231 breast = system: MDA-MB-231 breast
UACC-257 melanoma = system: UACC-257 melanoma
MALME-3M melanoma = system: MALME-3M melanoma
HT29 colon = system: HT29 colon
NCI-H23 lung = system: NCI-H23 lung
OVCAR-3 ovarian = system: OVCAR-3 ovarian
UACC-62 melanoma = system: UACC-62 melanoma
OVCAR-4 ovarian = system: OVCAR-4 ovarian
RXF 393 renal = system: RXF 393 renal
HCT-15 colon = system: HCT-15 colon
HOP-62 NSCLC = system: HOP-62 NSCLC
K-562 leukemia = system: K-562 leukemia
COLO 205 colon = system: COLO 205 colon
SF-295 CNS = system: SF-295 CNS
EKVX NSCLC = system: EKVX NSCLC
MCF7 breast = system: MCF7 breast
T-47D breast = system: T-47D breast
SNB-75 CNS = system: SNB-75 CNS
HCT-116 colon = system: HCT-116 colon
HL-60(TB) leukemia = system: HL-60(TB) leukemia
SK-OV-3 ovarian = system: SK-OV-3 ovarian
SNB-19 CNS = system: SNB-19 CNS
HOP-92 NSCLC = system: HOP-92 NSCLC
SW-620 colon = system: SW-620 colon
U251 CNS = system: U251 CNS
CCRF-CEM leukemia = system: CCRF-CEM leukemia
ACHN renal = system: ACHN renal
PC-3 prostate = system: PC-3 prostate
BT-549 breast = system: BT-549 breast
SK-MEL-5 melanoma = system: SK-MEL-5 melanoma
SK-MEL-28 melanoma = system: SK-MEL-28 melanoma
NCI-H460 lung = system: NCI-H460 lung
TK-10 renal = system: TK-10 renal
MDA-MB-435 = system: MDA-MB-435
IGROV1 ovarian = system: IGROV1 ovarian
OVCAR-5 ovarian = system: OVCAR-5 ovarian
MOLT-4 leukemia = system: MOLT-4 leukemia
DU-145 prostate = system: DU-145 prostate
NCI/ADR-RES ovarian = system: NCI/ADR-RES ovarian
SN12C renal = system: SN12C renal
SF-268 CNS = system: SF-268 CNS
RPMI-8226 leukemia = system: RPMI-8226 leukemia
CAKI-1 renal = system: CAKI-1 renal
HCC-2998 colon = system: HCC-2998 colon
M14 melanoma = system: M14 melanoma
LOX IMVI melanoma = system: LOX IMVI melanoma
786-0 renal = system: 786-0 renal
A498 renal = system: A498 renal
OVCAR-8 ovarian = system: OVCAR-8 ovarian
NCI-H522 lung = system: NCI-H522 lung
SF-539 CNS = system: SF-539 CNS
HS 578T breast = system: HS 578T breast
A549 NSCLC = system: A549 NSCLC

CCCCC/C=C/C(=O)CCc1ccc(O)c(OC)c1 gave a GI50 (KM12 colon) of 3.09 µM, a TGI (KM12 colon) of 11.7 µM and a GI50 (UO-31 renal) of 1.28 µM. The TGI (UO-31 renal) was 13.6 µM, the GI50 (SR leukemia) was 2.89 µM and the TGI (SR leukemia) was over 100 µM. For the same compound, the GI50 (SK-MEL-2 melanoma) was 14.8 µM, the TGI (SK-MEL-2 melanoma) was 28.8 µM and the GI50 (MDA-MB-231 breast) was 12.6 µM. The TGI (MDA-MB-231 breast) was 32.8 µM, the GI50 (UACC-257 melanoma) was 9.67 µM and the TGI (UACC-257 melanoma) was 22.3 µM. It also gave a GI50 (MALME-3M melanoma) of 16.6 µM, a TGI (MALME-3M melanoma) of 35.3 µM and a GI50 (HT29 colon) of 2.13 µM. The TGI (HT29 colon) was 4.94 µM, the GI50 (NCI-H23 lung) was 4.62 µM and the TGI (NCI-H23 lung) was 17.9 µM. For the same compound, the GI50 (OVCAR-3 ovarian) was 3.23 µM, the TGI (OVCAR-3 ovarian) was 12.9 µM and the GI50 (UACC-62 melanoma) was 13.9 µM. The TGI (UACC-62 melanoma) was 27.7 µM, the GI50 (OVCAR-4 ovarian) was 11 µM and the TGI (OVCAR-4 ovarian) was 23.1 µM. It also gave a GI50 (RXF 393 renal) of 5.4 µM, a TGI (RXF 393 renal) of 18.6 µM and a GI50 (HCT-15 colon) of 10.8 µM. The TGI (HCT-15 colon) was 27.2 µM, the GI50 (HOP-62 NSCLC) was 9.77 µM and the TGI (HOP-62 NSCLC) was 22.1 µM. For the same compound, the GI50 (K-562 leukemia) was 3.77 µM, the TGI (K-562 leukemia) was over 100 µM and the GI50 (COLO 205 colon) was 11.2 µM. The TGI (COLO 205 colon) was 24.1 µM, the GI50 (SF-295 CNS) was 10.4 µM and the TGI (SF-295 CNS) was 31 µM. It also gave a GI50 (EKVX NSCLC) of 15.1 µM, a TGI (EKVX NSCLC) of 31.9 µM and a GI50 (MCF7 breast) of 3.11 µM. The TGI (MCF7 breast) was 15.8 µM, the GI50 (T-47D breast) was 4.78 µM and the TGI (T-47D breast) was 18.9 µM. It also gave a GI50 (SNB-75 CNS) of 5.63 µM, a TGI (SNB-75 CNS) of 20.5 µM and a GI50 (HCT-116 colon) of 1.71 µM. The TGI (HCT-116 colon) was 3.26 µM, the GI50 (HL-60(TB) leukemia) was 0.784 µM and the TGI (HL-60(TB) leukemia) was 43.9 µM. For the same compound, the GI50 (SK-OV-3 ovarian) was 13.8 µM, the TGI (SK-OV-3 ovarian) was 27.4 µM and the GI50 (SNB-19 CNS) was 14 µM. It also gave a TGI (SNB-19 CNS) of 27.1 µM, a GI50 (HOP-92 NSCLC) of 3.42 µM and a TGI (HOP-92 NSCLC) of 18.5 µM. The GI50 (SW-620 colon) was 2.86 µM, the TGI (SW-620 colon) was 10.3 µM and the GI50 (U251 CNS) was 4.65 µM. It also gave a TGI (U251 CNS) of 17.1 µM, a GI50 (CCRF-CEM leukemia) of 0.198 µM and a TGI (CCRF-CEM leukemia) of 3.01 µM. The GI50 (ACHN renal) was 11.8 µM, the TGI (ACHN renal) was 24.1 µM and the GI50 (PC-3 prostate) was 3.75 µM. The TGI (PC-3 prostate) was 18 µM, the GI50 (BT-549 breast) was 13.2 µM and the TGI (BT-549 breast) was 26.7 µM. It also gave a GI50 (SK-MEL-5 melanoma) of 12.4 µM, a TGI (SK-MEL-5 melanoma) of 25.1 µM and a GI50 (SK-MEL-28 melanoma) of 15 µM. It also gave a TGI (SK-MEL-28 melanoma) of 28.7 µM, a GI50 (NCI-H460 lung) of 15.2 µM and a TGI (NCI-H460 lung) of 33.6 µM. For the same compound, the GI50 (TK-10 renal) was 11.6 µM, the TGI (TK-10 renal) was 24.7 µM and the GI50 (MDA-MB-435) was 4.04 µM. The TGI (MDA-MB-435) was 19 µM, the GI50 (IGROV1 ovarian) was 1.74 µM and the TGI (IGROV1 ovarian) was 6.91 µM. The GI50 (OVCAR-5 ovarian) was 16.2 µM, the TGI (OVCAR-5 ovarian) was 32.1 µM and the GI50 (MOLT-4 leukemia) was 10.1 µM. For the same compound, the TGI (MOLT-4 leukemia) was over 100 µM, the GI50 (DU-145 prostate) was 4.03 µM and the TGI (DU-145 prostate) was 15.4 µM. It also gave a GI50 (NCI/ADR-RES ovarian) of 7.49 µM, a TGI (NCI/ADR-RES ovarian) of 37 µM and a GI50 (SN12C renal) of 7.99 µM. It also gave a TGI (SN12C renal) of 21.4 µM, a GI50 (SF-268 CNS) of 10.9 µM and a TGI (SF-268 CNS) of 25.5 µM. It also gave a GI50 (RPMI-8226 leukemia) of 1.69 µM, a TGI (RPMI-8226 leukemia) of 4.34 µM and a GI50 (CAKI-1 renal) of 9.38 µM. The TGI (CAKI-1 renal) was 27.5 µM, the GI50 (HCC-2998 colon) was 16.7 µM and the TGI (HCC-2998 colon) was 30.7 µM. For the same compound, the GI50 (M14 melanoma) was 5.5 µM, the TGI (M14 melanoma) was 19.4 µM and the GI50 (LOX IMVI melanoma) was 1.6 µM. The TGI (LOX IMVI melanoma) was 3.29 µM, the GI50 (786-0 renal) was 10.6 µM and the TGI (786-0 renal) was 23.6 µM. For the same compound, the GI50 (A498 renal) was 13.1 µM, the TGI (A498 renal) was 26.8 µM and the GI50 (OVCAR-8 ovarian) was 4.03 µM. It also gave a TGI (OVCAR-8 ovarian) of 16.7 µM, a GI50 (NCI-H522 lung) of 2 µM and a TGI (NCI-H522 lung) of 13.6 µM. It also gave a GI50 (SF-539 CNS) of 5.4 µM, a TGI (SF-539 CNS) of 20.6 µM and a GI50 (HS 578T breast) of 3.49 µM. It also gave a TGI (HS 578T breast) of 32.8 µM, a GI50 (A549 NSCLC) of 6.25 µM and a TGI (A549 NSCLC) of 20.8 µM.
